Like-named read-outs stand apart in the source and are kept apart here.
Tests used:
[1] = tested on: B16F10 mouse melanoma cells; test: B16F10 IFNγ-induced cellular growth inhibition assay; format: cell-based; conditions: Mus musculus, B16-F10, 33 μM compound
Procedure, shortened: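 B16F10 cells (500/well, DMEM + 10% FBS) dosed in triplicate at 100 μM to 0.001 μM (0.1% DMSO) with or without 0.5 ng/mL final mouse IFNγ. Confluence imaged every 6 h for 5 days; % growth inhibition calculated versus DMSO/with-IFNγ control once DMSO/no-IFNγ wells exceeded 95% confluence.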

[2] = molecular target: T1, His tagged PTPN2 (TC45) protein (Homo sapiens, UniProt P17706); test: Mobility shift assay (MSA) for potency of PTPN2 inhibitors; format: biochemical; conditions: read-out: PTPN2 MSA IC50
T1 construct: made in house
T1 sequence (P17706 with tags, fused parts or gaps isoform P17706-2): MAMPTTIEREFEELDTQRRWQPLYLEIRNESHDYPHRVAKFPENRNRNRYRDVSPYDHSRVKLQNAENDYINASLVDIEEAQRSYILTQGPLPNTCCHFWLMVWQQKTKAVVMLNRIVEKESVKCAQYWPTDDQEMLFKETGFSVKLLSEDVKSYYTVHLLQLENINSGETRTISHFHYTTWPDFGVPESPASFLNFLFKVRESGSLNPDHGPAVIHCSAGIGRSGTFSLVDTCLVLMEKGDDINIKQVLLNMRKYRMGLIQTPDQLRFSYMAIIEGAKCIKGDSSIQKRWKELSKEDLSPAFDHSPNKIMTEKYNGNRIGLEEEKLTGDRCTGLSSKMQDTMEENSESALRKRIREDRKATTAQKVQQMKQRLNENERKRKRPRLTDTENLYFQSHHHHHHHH
Procedure, shortened: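 His-tagged PTPN2 TC45 (0.5 nM) was preincubated with compound (12-point, 1:3) for 10 min at room temperature in 50 mM HEPES pH 7.5, 1 mM EGTA, 10 mM EDTA, 0.01% Tween 20, 2 mM DTT. OG488-labelled phospho-insulin-receptor peptide ([…]) was then added for 10 min. After quenching, dephosphorylation was measured by microfluidic mobility shift and IC50 derived from % inhibition.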

[3] = +0.5 ng/mL IFNγ, relative to DMSO control, read-out: % B16F10 growth inhibition (+0.5 ng/mL IFNγ) @ 33 μM
[4] = no IFNγ, read-out: % B16F10 growth inhibition (no IFNγ) @ 33 μM

Row | SMILES | inhibition at 33 µM [1, 3] [%] | inhibition at 33 µM [1, 4] [%] | IC50 [2] [nM]
1 | O=C1CN(c2c(O)cc3ccc(C4=CCN(CC5CC5)C4)cc3c2F)S(=O)(=O)N1 [Compound 242, 5-{7-[1-(cyclopropylmethyl)-2,5-dihydro-1H-pyrrol-3-yl]-1-fluoro-3-hydroxynaphthalen-2-yl}-1λ^6,2,5-thiadiazolidine-1,1,3-trione] | 60 to 90 | < 25 | 1 to 10
2 | COc1ccc2c(Br)c(O)c(N3CC(=O)NS3(=O)=O)c(F)c2c1 [Compound 243, 5-(4-bromo-1-fluoro-3-hydroxy-7-methoxynaphthalen-2-yl)-1λ^6,2,5-thiadiazolidine-1,1,3-trione] | 25 to 59 | < 25 | 10 to 100
3 | COC/C=C/c1ccc2cc(O)c(N3CC(=O)NS3(=O)=O)c(F)c2c1 [Compound 245, 5-{1-fluoro-3-hydroxy-7-[(1E)-3-methoxyprop-1-en-1-yl]naphthalen-2-yl}-1λ^6,2,5-thiadiazolidine-1,1,3-trione] | 60 to 90 | < 25 | 1 to 10
4 | CCOCCOc1ccc2cc(O)c(N3CC(=O)NS3(=O)=O)c(F)c2c1 [Compound 246, 5-[7-(2-ethoxyethoxy)-1-fluoro-3-hydroxynaphthalen-2-yl]-1λ^6,2,5-thiadiazolidine-1,1,3-trione] | 60 to 90 | < 25 | 1 to 10
5 | COCCCOc1ccc2cc(O)c(N3CC(=O)NS3(=O)=O)c(F)c2c1 [Compound 247, 5-[1-fluoro-3-hydroxy-7-(3-methoxypropoxy)naphthalen-2-yl]-1λ^6,2,5-thiadiazolidine-1,1,3-trione] | 60 to 90 | < 25 | 1 to 10
6 | O=C1CN(c2c(O)cc3ccc(C4CCS(=O)(=O)CC4)cc3c2F)S(=O)(=O)N1 [Compound 248, 5-[7-(1,1-dioxo-1λ^6-thian-4-yl)-1-fluoro-3-hydroxynaphthalen-2-yl]-1λ^6,2,5-thiadiazolidine-1,1,3-trione] | 60 to 90 | < 25 | 1 to 10
7 | O=C1CN(c2c(O)cc3ccc(OCC4CC4)cc3c2F)S(=O)(=O)N1 [Compound 250, 5-[7-(cyclopropylmethoxy)-1-fluoro-3-hydroxynaphthalen-2-yl]-1λ^6,2,5-thiadiazolidine-1,1,3-trione] | 60 to 90 | < 25 | 1 to 10
8 | O=C1CN(c2c(O)cc3ccc(CC4CCN(CC(F)(F)F)CC4)cc3c2F)S(=O)(=O)N1 [Compound 252, 5-(1-fluoro-3-hydroxy-7-{[1-(2,2,2-trifluoroethyl)piperidin-4-yl]methyl}naphthalen-2-yl)-1λ^6,2,5-thiadiazolidine-1,1,3-trione] | 25 to 59 | < 25 | 1 to 10
9 | O=C1CN(c2c(O)cc3ccc(CC4CN(S(=O)(=O)C5CC5)C4)cc3c2F)S(=O)(=O)N1 [Compound 256, 5-(7-{[1-(cyclopropanesulfonyl)azetidin-3-yl]methyl}-1-fluoro-3-hydroxynaphthalen-2-yl)-1λ^6,2,5-thiadiazolidine-1,1,3-trione] | 25 to 59 | < 25 | < 1
10 | O=C1CN(c2c(O)cc3ccc(C4=CCOCC4)cc3c2F)S(=O)(=O)N1 [Compound 264, 5-[7-(3,6-dihydro-2H-pyran-4-yl)-1-fluoro-3-hydroxynaphthalen-2-yl]-1λ^6,2,5-thiadiazolidine-1,1,3-trione] | 60 to 90 | < 25 | 1 to 10
11 | O=C1CN(c2c(O)cc3ccc(OCC4CCOCC4)cc3c2F)S(=O)(=O)N1 [Compound 273, 5-{1-fluoro-3-hydroxy-7-[(oxan-4-yl)methoxy]naphthalen-2-yl}-1λ^6,2,5-thiadiazolidine-1,1,3-trione] | 60 to 90 | < 25 | 1 to 10
12 | O=C1CN(c2c(O)cc3ccc(OC4COC4)cc3c2F)S(=O)(=O)N1 [Compound 274, 5-{1-fluoro-3-hydroxy-7-[(oxetan-3-yl)oxy]naphthalen-2-yl}-1λ^6,2,5-thiadiazolidine-1,1,3-trione] | 60 to 90 | < 25 | 1 to 10
13 | O=C1CN(c2c(O)cc3ccc(O)cc3c2F)S(=O)(=O)N1 [Compound 276, 5-(1-fluoro-3,7-dihydroxynaphthalen-2-yl)-1λ^6,2,5-thiadiazolidine-1,1,3-trione] | 25 to 59 | < 25 | 1 to 10
14 | O=C1CN(c2c(O)cc3ccc(OCCO)cc3c2F)S(=O)(=O)N1 [Compound 277, 5-[1-fluoro-3-hydroxy-7-(2-hydroxyethoxy)naphthalen-2-yl]-1λ^6,2,5-thiadiazolidine-1,1,3-trione] | 60 to 90 | < 25 | 1 to 10
15 | CCCOc1ccc2cc(O)c(N3CC(=O)NS3(=O)=O)c(F)c2c1 [Compound 278, 5-(1-fluoro-3-hydroxy-7-propoxynaphthalen-2-yl)-1λ^6,2,5-thiadiazolidine-1,1,3-trione] | 60 to 90 | < 25 | 1 to 10
16 | CC(C)Oc1ccc2cc(O)c(N3CC(=O)NS3(=O)=O)c(F)c2c1 [Compound 279, 5-{1-fluoro-3-hydroxy-7-[(propan-2-yl)oxy]naphthalen-2-yl}-1λ^6,2,5-thiadiazolidine-1,1,3-trione] | 60 to 90 | < 25 | 1 to 10
17 | O=C(COc1ccc2cc(O)c(N3CC(=O)NS3(=O)=O)c(F)c2c1)NCCC1CC1 [Compound 281, N-(2-cyclopropylethyl)-2-{[8-fluoro-6-hydroxy-7-(1,1,4-trioxo-1λ^6,2,5-thiadiazolidin-2-yl)naphthalen-2-yl]oxy}acetamide] | 25 to 59 | < 25 | 1 to 10
18 | CCN(CC)C(=O)COc1ccc2cc(O)c(N3CC(=O)NS3(=O)=O)c(F)c2c1 [Compound 282, N,N-diethyl-2-{[8-fluoro-6-hydroxy-7-(1,1,4-trioxo-1λ^6,2,5-thiadiazolidin-2-yl)naphthalen-2-yl]oxy}acetamide] | 25 to 59 | < 25 | 1 to 10
19 | O=C1CN(c2c(O)cc3ccc(OCC(=O)N4CCCC4)cc3c2F)S(=O)(=O)N1 [Compound 283, 5-{1-fluoro-3-hydroxy-7-[2-oxo-2-(pyrrolidin-1-yl)ethoxy]naphthalen-2-yl}-1λ^6,2,5-thiadiazolidine-1,1,3-trione] | 25 to 59 | < 25 | 1 to 10
20 | CCS(=O)(=O)N1CC=C(c2ccc3cc(O)c(N4CC(=O)NS4(=O)=O)c(F)c3c2)C1 [Compound 295, 5-{7-[1-(ethanesulfonyl)-2,5-dihydro-1H-pyrrol-3-yl]-1-fluoro-3-hydroxynaphthalen-2-yl}-1λ^6,2,5-thiadiazolidine-1,1,3-trione] | > 90 | < 25 | < 1
21 | CC(C)S(=O)(=O)N1CC=C(c2ccc3cc(O)c(N4CC(=O)NS4(=O)=O)c(F)c3c2)C1 [Compound 296, 5-{1-fluoro-3-hydroxy-7-[1-(propane-2-sulfonyl)-2,5-dihydro-1H-pyrrol-3-yl]naphthalen-2-yl}-1λ^6,2,5-thiadiazolidine-1,1,3-trione] | > 90 | < 25 | < 1
22 | O=C1CN(c2c(O)cc3ccc(C4=CCN(S(=O)(=O)C5CC5)CC4)cc3c2F)S(=O)(=O)N1 [Compound 297, 5-{7-[1-(cyclopropanesulfonyl)-1,2,3,6-tetrahydropyridin-4-yl]-1-fluoro-3-hydroxynaphthalen-2-yl}-1λ^6,2,5-thiadiazolidine-1,1,3-trione] | 25 to 59 | < 25 | 1 to 10
23 | O=C1CN(c2c(O)cc3ccc(C4CCNCC4)cc3c2F)S(=O)(=O)N1 [Compound 299, 5-[1-fluoro-3-hydroxy-7-(piperidin-4-yl)naphthalen-2-yl]-1λ^6,2,5-thiadiazolidine-1,1,3-trione] | > 90 | < 25 | 1 to 10
24 | CC(C)CS(=O)(=O)N1CC=C(c2ccc3cc(O)c(N4CC(=O)NS4(=O)=O)c(F)c3c2)C1 [Compound 300, 5-{1-fluoro-3-hydroxy-7-[1-(2-methylpropane-1-sulfonyl)-2,5-dihydro-1H-pyrrol-3-yl]naphthalen-2-yl}-1λ^6,2,5-thiadiazolidine-1,1,3-trione] | 60 to 90 | < 25 | < 1
25 | CCOc1ccc2cc(O)c(N3CC(=O)NS3(=O)=O)c(F)c2c1 [Compound 301, 5-(7-ethoxy-1-fluoro-3-hydroxynaphthalen-2-yl)-1λ^6,2,5-thiadiazolidine-1,1,3-trione] | 60 to 90 | < 25 | 1 to 10

From patent publication US20210009542A1 (Calico Life Sciences LLC, priority 2018, published 2021)
